Data set [1] concerns Mus musculus. Put plainly: Anti-inflammatory activity against psoriasis mouse model assessed as reduction in epidermal thickness treated topically. Format: functional.
Data set [2] is filed under the species Homo sapiens. Description: Ex-vivo reduction in proinflammatory cytokine levels in psoriasis patient assessed as reduction in IL-17F level in skin tissue at 10 uM measured after 12 to 14 hrs by sRICA assay. The data set is classed as functional. As to conditions: Skin of body, time 12-14 hrs.
For data set [3], the species on record is Homo sapiens. Put plainly: Ex-vivo reduction in proinflammatory cytokine levels in psoriasis patient assessed as reduction in IL-19 level in skin tissue at 10 uM measured after 12 to 14 hrs by sRICA assay. The data set is classed as functional. The settings on record: Skin of body, time 12-14 hrs.
A short description of data set [4]: Inhibition of SRC1 coactivator recruitment in human PBMC. Format: functional, cell-based.
The species named for data set [5] is Homo sapiens. Put plainly: Ex-vivo reduction in proinflammatory cytokine levels in psoriasis patient assessed as reduction in IL-22 level in skin tissue at 10 uM measured after 12 to 14 hrs by sRICA assay. Format: functional. The settings on record: Skin of body, time 12-14 hrs.
Data set [6] in a line: cells. The settings on record: Homo sapiens, PBMC.
Data set [7] is filed under the species Homo sapiens. Description: Ex-vivo reduction in proinflammatory cytokine levels in psoriasis patient assessed as reduction in IL-17A level in skin tissue at 10 uM measured after 12 to 14 hrs by sRICA assay. Format: functional. The settings on record: Skin of body, time 12-14 hrs.
In data set [8] the target is T1, Nuclear receptor ROR-gamma (Homo sapiens, UniProt P51449).
T1 sequence (P51449 whole entry): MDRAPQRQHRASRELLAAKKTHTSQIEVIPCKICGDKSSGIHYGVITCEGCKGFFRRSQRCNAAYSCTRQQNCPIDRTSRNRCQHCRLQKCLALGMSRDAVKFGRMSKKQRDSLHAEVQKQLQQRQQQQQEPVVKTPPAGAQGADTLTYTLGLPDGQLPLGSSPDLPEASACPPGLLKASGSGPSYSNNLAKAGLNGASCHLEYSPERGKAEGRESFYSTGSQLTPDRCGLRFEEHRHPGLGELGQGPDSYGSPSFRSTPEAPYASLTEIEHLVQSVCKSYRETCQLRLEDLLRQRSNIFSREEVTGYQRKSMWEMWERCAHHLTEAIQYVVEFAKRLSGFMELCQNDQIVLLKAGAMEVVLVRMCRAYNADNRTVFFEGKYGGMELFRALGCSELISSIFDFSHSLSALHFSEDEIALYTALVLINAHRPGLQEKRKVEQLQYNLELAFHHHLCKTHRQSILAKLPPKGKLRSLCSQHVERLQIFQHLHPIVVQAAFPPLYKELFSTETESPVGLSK
Description: Antagonist activity at RORgammat LBD (unknown origin) assessed as fluorescent polarization signal measured in presence of fluorescein-labeled LXR agonist T0901317 after 4 hrs by competitive binding assay.

Data set [9] in a line: cells. The settings on record: Homo sapiens, Th17.
Data set [10] in a line: Inhibition of IL-17F production in human PBMC by ELISA. Format: functional, cell-based.
Data set [11] is described as follows: Inhibition of IL-17A production in human PBMC by ELISA. Format: functional, cell-based.
A short description of data set [12]: Inhibition of IL-22 production in human PBMC by ELISA. Format: functional, cell-based.
The nature of data set [13]: Inhibition of IL-21 production in human PBMC by ELISA. Format: functional, cell-based. A general note: ELISA stands for enzyme-linked immunosorbent assay.
Data set [14] can be described thus: Inhibition of IL-17 production in human Th17 cells relative to control. The data set is classed as functional.
For data set [15], the target named is T2, Nuclear receptor ROR-gamma (Homo sapiens) (UniProt P51449).
T2 sequence (whole entry): T1 sequence (P51449 whole entry)
Description: Inhibition of human RORgamma by TR-FRET assay relative to control.

Data set [16] concerns Mus musculus. Put plainly: Anti-arthritis activity against collagen-induced arthritis DBA/1Lacj mouse model assessed as arthritis clinical score at 30 mg/kg, po twice daily from day 21 to 35 relative to control. The settings on record: 504 h. The data set is classed as functional.
Data set [17] relates to Mus musculus. Put plainly: Anti-arthritis activity against collagen-induced arthritis DBA/1Lacj mouse model assessed as arthritis clinical score at 10 mg/kg, po twice daily from day 21 to 35 relative to control. Format: functional. As to conditions: 504 h.
Data set [18] can be described thus: Inhibition of IL-17A production in human PBMC derived from rheumatoid arthritis. The data set is classed as functional, cell-based.
Data set [19] deals with Mus musculus. Description: Anti-arthritis activity against collagen-induced arthritis DBA/1Lacj mouse model assessed as arthritis clinical score at 60 mg/kg, po twice daily from day 21 to 35 relative to control. As to conditions: 504 h. The data set is classed as functional.
For data set [20], the target named is T2, Nuclear receptor ROR-gamma (Homo sapiens). Put plainly: Inverse agonist activity at GAL4-RORgammat LBD (unknown origin) expressed in HEK293 cells at 1 uM measured after 24 hrs by nuclear receptor assay relative to control. The data set is classed as cell-based.
Data set [21] in a line: Inhibition of IL-17 production in human BAL cells isolated from COPD patients measured after 72 hrs by ELISA based assay. The data set is classed as functional. As to conditions: Bronchoalveolar lavage cell.
A short description of data set [22]: Inhibition of IL-17 production in human PBMC isolated from COPD patients measured after 72 hrs by ELISA based assay. The data set is classed as functional, cell-based.
Data set [23] can be described thus: cells. As to conditions: Homo sapiens, PBMC, 96 h.
Description: Inhibition of IL17 production in human PBMC cells measured after 4 days by enzyme-linked immunosorbent assay
Data set [24] has as its target T1, Nuclear receptor ROR-gamma. Description: Inhibition of human GAL4-fused RORgamma LBD transfected in HEK293T cell measured after 24 hrs by luciferase reporter assay. The data set is classed as cell-based. A general note: A reporter such as luciferase makes a cellular process visible.
A short description of data set [25]: Suppression of Th17 polarization in human CD4+ T cells cultured under Th17-skewing conditions measured after 4 days.
Data set [26] deals with T1, Nuclear receptor ROR-gamma. Put plainly: Inhibition of human GAL4-fused RORgammat LBD transfected in Escherichia coli BL21(DE3) cell measured after 16 hrs by HTRF assay. In general terms: TR-FRET usually uses a lanthanide donor and a delayed reading to cut background.
Data set [27] is described as follows: Half life in mouse. Format: ADME, organism-based. As to conditions: in vivo.
Data set [28] in a line: cells. As to conditions: Homo sapiens, PBMC, 144 h.
Description: Decrease in Tc17 cell differentiation in CD8+ T cells from human PBMC cells cultured under the Tc17-skewing conditions measured after 6 days
The species entered for data set [29] is Homo sapiens. Description: tissue or blood. The settings on record: 18 h.
Description: Reduction of IL22 level in human whole blood measured after 18 hrs by ELISA
Data set [30] is described as follows: Oral bioavailability in mouse. Format: ADME, organism-based. The settings on record: in vivo.
The species named for data set [31] is Homo sapiens. Put plainly: tissue or blood. As to conditions: 18 h. This is another data set of the same source.
Description: Reduction of IL17 level in human whole blood measured after 18 hrs by ELISA
The species entered for data set [32] is Homo sapiens. Description: tissue or blood. As to conditions: 18 h. This is another data set of the same source.
Description: Reduction of IL17F level in human whole blood measured after 18 hrs by ELISA

The values below come from ChEMBL document CHEMBL5260836, “Combating Autoimmune Diseases With Retinoic Acid Receptor-Related Orphan Receptor-γ (RORγ or RORc) Inhibitors: Hits and Misses” (J Med Chem, 2018).

`CCc1ccc(N(CC(C)C)S(=O)(=O)c2ccc(OCC3CCOCC3)c(CO)c2)cc1` [GSK2981278]: the “inhibition (INH)” value with Mus musculus [1] was 23%. Further, the inhibition in vivo at 10 µM in the data set listed under Homo sapiens [2], in the data set filed under Homo sapiens [3], in the data set filed under Homo sapiens [5] and in the data set listed under Homo sapiens [7] was greater than 50% throughout. In addition, the values for the IC50 (in data set [4]; in the data set “cells [6]”) were 20 nM and 63 nM, respectively.

For the compound `C[C@H]1CN(Cc2cncc(NS(=O)(=O)c3c(Cl)cc(Cl)cc3Cl)c2)CCN1C(=O)C1CCCC1`, in data set [8], the IC50 worked out at 89 nM.

In the case of `O=C(Nc1ccc2c(c1)CN(S(=O)(=O)c1cccc(C(F)(F)F)c1)CCC2)c1c(F)cccc1Cl`, in the data set “cells [9]”, the IC50 was determined as 40 nM.

In the case of `O=S(=O)(c1ccc(Cl)cc1)N1CCC(Cn2ccc3cc(-c4cn[nH]c4)ccc32)CC1`, the IC50 in [10], in data set [11], in data set [12] and in data set [13] was less than 10000 nM throughout.

With `O=C(Nc1ccc2c(c1)CN(S(=O)(=O)c1cccc(C(F)(F)F)c1)CCO2)c1c(F)cccc1Cl`, the values for the Efficacy in [14] and in data set [15] were -73% and -69%, respectively. The same compound yielded a concentration for half-maximal inhibition (IC50) in “cells [9]” of 180 nM.

On to `COc1nc2ccc([C@](O)(c3ccc(C)nc3C)c3cnnn3C)cc2c(Cl)c1Cc1ccc(C(F)(F)F)cc1`, for which the inhibition in vivo at 30 mg/kg with Mus musculus [16] was 46%. For the same compound, in the data set on Mus musculus [17], the inhibition in vivo at 10 mg/kg was 32%. In addition, the half-inhibitory concentration (IC50) in data set [18] worked out at 5 nM. In the data set with Mus musculus [19], the inhibition in vivo at 60 mg/kg came to 78%.

In data set [20], `NC(=O)Cc1ccc(CNc2ncnc(N3CCOC[C@@H]3c3ccc(C(F)(F)F)cc3)c2F)cc1` returned an inhibition of 80%.

Turning to `CCn1c(C(C)(C)Oc2ccc(F)cc2F)nc2cc(NC(=O)Cc3ccc(S(=O)(=O)CC)cc3)ccc21`, the IC50 in data set [21] is 350 nM; in [22], 147 nM.

As for `O=C(O)c1ccc(-c2nn(C(=O)c3c(Cl)cccc3C(F)(F)F)c3ccccc23)cc1`, in “cells [23]”, it took 39.6 nM to reach half-maximal inhibition (IC50).

As for `O=S(=O)(c1ccccc1)N1CCC(Cn2ccc3nc(-c4cn[nH]c4)ccc32)CC1`, the IC50 in [10], in data set [11], in data set [12] and in data set [13] was less than 10000 nM in each case.

With `Cc1cnccc1-c1nc(-c2ccccc2)c2c(n1)[C@]1(C)C=C(C#N)C(=O)[C@H](C)[C@H]1CC2`, the IC50 in data set [24] is 40 nM; in data set [25], 39 nM.

In “cells [9]”, `COc1c(NC(=O)c2cccc(C#N)c2)cnc2c1c(C1CCN(C(=O)C3CCCC3)CC1)cn2C` registered an IC50 of 29.8 nM.

`O=C(O)c1ccc(-c2nn(C(=O)c3c(Cl)cccc3C(F)(F)F)c3cccnc23)c(F)c1`: the midpoint of inhibition in data set [26], the IC50, lay at 2 nM.

Compound `COc1ccc2c(n1)CCN(C(=O)[C@H]1C[C@@H](CC(=O)O)C1)[C@H]2C(=O)Nc1cc(F)c2c(c1)CCC2(C)C` came in with a half-life in data set [27] greater than 4 h. Moreover, the IC50 in data set [25] came to 28 nM; in “cells [28]” it was 9.5 nM; in the data set listed under Homo sapiens [29], 1600 nM; in “cells [6]”, 102 nM; in the data set listed under Homo sapiens [31], 120 nM; in the data set filed under Homo sapiens [32], 430 nM. The compound further came in with a bioavailability in data set [30] of 96%.

Usually inhibition in vivo stands for the drop in the measured response relative to a control, in per cent. For orientation: IC50 means the concentration that inhibits the measured activity by half. Usually inhibition stands for the change of the read-out against control, counted positive when it falls. For orientation: half-life means the time needed for the level to fall by half in the phase considered. What is called bioavailability is dose-corrected exposure relative to a reference, in per cent. High values mean much systemic uptake, low ones little systemic uptake.
